Measured values reported in patent US10005769B2, “2,3-dihydrobenzofuran-5YL compounds as DYRK kinase inhibitors” (4SC DISCOVERY GMBH, priority 2013, dated 2018).

What was measured:
DYRK1B = DYRK1B (Homo sapiens (Human), UniProt Q9Y463); experiment: DYRK1B Kinase Assay (33P ATP, DYRKtide substrate, Reaction Biology Corp.); format: biochemical; conditions: 0.3 nM DYRK1B, 20 μM DYRKtide, 10 μM ATP, 25° C., 120 min
Experimental: The assay was carried out by Reaction Biology Corp., […], Pa., USA according to specifications by Reaction Biology Corp., as detailed herein below and further described in Anastassiadis et al., Nature Biotechnology, 29 (2011) 1039-1045. The substrate DYRKtide (synthetic peptide RRRFRPASPLRGPPK) was dissolved in freshly prepared Base Reaction Buffer (20 mM Hepes (pH 7.5), 10 mM MgCl2, 1 mM EGTA, 0.02% Brij35, 0.02 mg/ml BSA, 0.1 mM Na3VO4, 2 mM DTT, 1% DMSO) at a concentration of 20 μM. DYRK1B was added to the substrate solution in a concentration of 0.3 nM and gently mixed. Dilution series of the compounds according to the present invention in DMSO were prepared. Each dilution was added to a batch of the above reaction mix, followed 20 min later by addition of a mixture of ATP and ^33P ATP (specific activity 0.01 μCi/μl final) to a final concentration of 10 μM. Reactions were carried out at 25° C. for 120 min, followed by spotting the reactions onto P81 ion exchange filter paper. Unbound phosphate was removed by extensive washing of the filters in 0.75% phosphoric acid. […] IC50 values and curve fits were obtained using Prism (Graph Pad Software). DYRK1B used in the above assays are further described in the below table: [table] Exemplary compound dilution series, final concentrations of compound in the assay vessel; the individual concentrations and the range of concentrations covered by the dilution series may differ for each compound, as long as enough data points are obtained to determine the compound's IC50: DYRK 1[…].

[1] = tested on: Hedgehog signaling pathway (Gli Reporter - NIH3T3 cell line); experiment: Hedgehog Reporter Assay (Gli-Reporter, luciferase, mSHH stimulated); format: cell-based, murine; conditions: Mus musculus; Gli Reporter NIH3T3 cells, 1 μg/ml mSHH, 24 h
Experimental: In order to investigate the potency of test compounds to inhibit the Hedgehog signaling pathway, a Gli-Reporter assay was performed. The “Gli Reporter-NIH3T3” cell line contains the firefly luciferase gene under the control of Gli responsive elements stably integrated into murine NIH3T3 cells (cells purchased from AMS Biotechnology ltd., 184 Milton Park, Abingdon OX14 4SE, U.K.). The luciferase expression correlates with activation of the hedgehog signaling pathway. This cell line is validated for its response to stimulation with murine Sonic Hedgehog and to treatment with inhibitors of the hedgehog signaling pathway. A multiplexed viability assay was used to discriminate inhibition on the pathway activity from cell toxicity. Growth Medium: DMEM (Dulbecco's Modified Eagle Medium); 10% Fetal Calf Serum; 1% Penicillin/Streptomycin; 500 μg/ml Geneticin (G418 Stock 50 mg/ml). Assay Medium: Opti-MEM® Reduced Serum Medium; 0.5% Calf Serum; 1% non-essential amino acids; 1 mM Na-pyruvate; 10 mM HEPES; 1% Penicillin/Streptomycin. 25,000 cells per well were seeded into a white 96 well plate in 100 μl growth medium and incubated over night at 37° C. and 5% CO2. After removing the supernatant the test compounds and controls were added in different concentrations in a final volume of 45 μl and incubated for 1 h at 37° C. and 5% CO2. For the stimulation of the Hedgehog pathway 5 μl of 10 μg/ml concentrated murine SHH (or mSHH; murine sonic hedgehog protein) was added to the cells. A final concentration of 1 μg/ml mSHH and 0.1% DMSO was reached per well. After incubation for 24 h at 37° C. the cells were investigated for viability and reporter activity. Viability: For the determination of the viability of the treated cells the CellTiter-FluorTM Kit from Promega comprising the fluorogenic, cell-permeant peptide substrate ([…]-aminofluorocoumarin GF-AFC was used. Roughly, only proteases of viable cells are able to cleave the GF-AFC. By this cleavage the fluorescent AFC is set free and can be detected in a fluorescence reader. For this assay 10 μl of GF-AFC substrate (CellTiter-FluorTM, Promega #G6082) was diluted in 2 ml assay buffer from the CellTiter-FluorTM Kit and 10 μl of this dilution was added per well to the cells and incubated for 30 min at 37° C. The fluorescence was measured with an excitation of 380-400 nm and an emission of 505 nm. Reporter activity: The firefly luciferase reporter activity was detected with the ONE-GloTM Luciferase Assay System from Promega. For this assay 50 μl ONE-Glo luciferase reagent (Promega #E6120, contains cell lysis buffer and luciferin) was added to each well and incubated at room temperature for 5 min. Luminescence was detected in a plate reader and served as a measure for reporter activity.

[2] = tested on: L3.6pl human metastatic pancreatic adenocarcinoma cells; experiment: Xenograft assay with L3.6pl cancer cells; format: in vivo, Foxn1nu/nu nude mice; conditions: 100 mg/kg/day p.o. daily
Experimental: The x-axis reflects the time [in days], while the y-axis reflects the tumor volume [in mm^3]. A xenograft assay with L3.6pl cancer cells was prepared as follows: 1×10^5 L3.6pl (Bruns et al., 1999) human metastatic pancreatic adenocarcinoma cells in 25% Matrigel (BD Biosciences, NJ, USA) were injected subcutaneously into the lower flanks of Foxn1nu/nu nude mice (Charles River Laboratories, USA). The compound of example 5 was administered p.o. daily with 100 mg/kg/day, dissolved in a mixture of 20% Glycofurol 75, 20% Oleic acid and 60% Olive oil; administration was started at the same day of injection of tumor cells. As a negative control, separate aminals were administered solvent vehicle without active compound. The tumor volume was measured with a caliper and calculated according to the formula [4/3×π×(length/2)×(width/2)×(height/2). Results are shown in FIG. 1, the p value was <0.01.

Chain of DYRK1B (Q9Y463 whole entry): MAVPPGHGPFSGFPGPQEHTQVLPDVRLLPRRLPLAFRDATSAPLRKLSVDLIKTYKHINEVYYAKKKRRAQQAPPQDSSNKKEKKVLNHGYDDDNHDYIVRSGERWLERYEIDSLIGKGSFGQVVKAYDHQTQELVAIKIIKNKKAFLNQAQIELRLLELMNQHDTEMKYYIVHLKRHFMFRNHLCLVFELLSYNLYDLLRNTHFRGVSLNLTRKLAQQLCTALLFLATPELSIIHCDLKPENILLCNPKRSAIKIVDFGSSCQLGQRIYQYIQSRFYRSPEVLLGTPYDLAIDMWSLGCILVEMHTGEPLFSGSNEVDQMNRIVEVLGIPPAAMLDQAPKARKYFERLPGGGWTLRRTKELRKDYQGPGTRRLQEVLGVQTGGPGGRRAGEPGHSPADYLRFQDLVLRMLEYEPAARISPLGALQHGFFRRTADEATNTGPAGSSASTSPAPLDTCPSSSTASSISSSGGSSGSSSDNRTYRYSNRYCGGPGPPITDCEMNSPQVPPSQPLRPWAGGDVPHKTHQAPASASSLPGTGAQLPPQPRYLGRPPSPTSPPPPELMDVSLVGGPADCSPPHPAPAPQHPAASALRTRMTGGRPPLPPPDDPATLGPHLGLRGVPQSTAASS

Row | SMILES | IC50 (DYRK1B) [µM] | animals' weight over the course of the experiment [2] | IC50 [1] [µM]
1 | O=C(Nc1nc2cc(C(F)(F)F)ccc2[nH]1)c1csc(-c2ccc3c(c2)CCO3)n1 [Compound 5, 2-(2,3-Dihydrobenzofuran-5-yl)-N-(5-(trifluoromethyl)-1H-benzo[d]imidazol-2-yl)thiazole-4-carboxamide] | 0.0909 | essentially unchanged | 1 to 3
2 | COc1cccc(-c2c[nH]c(NC(=O)c3csc(-c4ccc5c(c4)CCO5)n3)n2)c1 [Compound 13, 2-(2,3-Dihydrobenzofuran-5-yl)-N-(4-(3-methoxyphenyl)-1H-imidazol-2-yl)thiazole-4-carboxamide] | 0.111 | – | 1 to 3
3 | O=C(Nc1nc2cc(OC(F)(F)F)ccc2[nH]1)c1csc(-c2ccc3c(c2)CCO3)n1 [Compound 14, 2-(2,3-Dihydrobenzofuran-5-yl)-N-(6-(trifluoromethoxy)-1H-benzo[d]imidazol-2-yl)thiazole-4-carboxamide] | 0.0294 | – | 1 to 3
4 | O=C(Nc1ccccn1)c1csc(-c2ccc3c(c2)CCO3)n1 [Compound 17, 2-(2,3-Dihydrobenzofuran-5-yl)-N-(pyridin-2-yl)thiazole-4-carboxamide] | 0.0294 | – | 3 to 10
5 | O=C(Nc1nnc(C(=O)N2CCOCC2)[nH]1)c1csc(-c2ccc3c(c2)CCO3)n1 [Compound 26, 2-(2,3-Dihydrobenzofuran-5-yl)-N-(5-(morpholine-4-carbonyl)-4H-1,2,4-triazol-3-yl)thiazole-4-carboxamide] | 0.085 | – | 3 to 10
6 | CN1CCN(C(=O)c2nnc(NC(=O)c3csc(-c4ccc5c(c4)CCO5)n3)[nH]2)CC1 [Compound 27, 2-(2,3-Dihydrobenzofuran-5-yl)-N-(5-(4-methylpiperazine-1-carbonyl)-4H-1,2,4-triazol-3-yl)thiazole-4-carboxamide] | 0.0498 | – | 3 to 10
7 | O=C(Nc1nnc(C(=O)N2CCCC2)[nH]1)c1csc(-c2ccc3c(c2)CCO3)n1 [Compound 28, 2-(2,3-Dihydrobenzofuran-5-yl)-N-(5-(pyrrolidine-1-carbonyl)-4H-1,2,4-triazol-3-yl)thiazole-4-carboxamide] | 0.0471 | – | 3 to 10
8 | CN(C)C(=O)c1n[nH]c(NC(=O)c2csc(-c3ccc4c(c3)CCO4)n2)n1 [Compound 29, 2-(2,3-Dihydrobenzofuran-5-yl)-N-(5-(dimethylcarbamoyl)-4H-1,2,4-triazol-3-yl)thiazole-4-carboxamide] | 0.072 | – | 3 to 10
9 | O=C(Nc1nc(SCc2ccccc2)n[nH]1)c1csc(-c2ccc3c(c2)CCO3)n1 [Compound 32, N-(3-(Benzylthio)-1H-1,2,4-triazol-5-yl)-2-(2,3-dihydrobenzofuran-5-yl)thiazole-4-carboxamide] | 1.35 | – | 3 to 10
10 | CN1CCN(c2ccc3nc(NC(=O)c4csc(-c5ccc6c(c5)CCO6)n4)sc3c2)CC1 [Compound 41, 2-(2,3-Dihydrobenzofuran-5-yl)-N-(6-(4-methylpiperazin-1-yl)benzo[d]thiazol-2-yl)thiazole-4-carboxamide] | 0.0195 | – | 3 to 10
11 | Cc1n[nH]c(NC(=O)c2csc(-c3ccc4c(c3)CCO4)n2)n1 [Compound 44, 2-(2,3-Dihydrobenzofuran-5-yl)-N-(3-methyl-1H-1,2,4-triazol-5-yl)thiazole-4-carboxamide] | 0.0601 | – | 3 to 10
12 | O=C(Nc1nc(-c2ccco2)n[nH]1)c1csc(-c2ccc3c(c2)CCO3)n1 [Compound 46, 2-(2,3-Dihydrobenzofuran-5-yl)-N-(3-(furan-2-yl)-1H-1,2,4-triazol-5-yl)thiazole-4-carboxamide] | 0.0153 | – | 3 to 10

These reach a lower IC50 (DYRK1B). Values come first.

Row | IC50 (DYRK1B) [µM] | animals' weight over the course of the experiment [2] | SMILES | IC50 [1] [µM]
13 | 0.00968 | – | CNC(=O)c1n[nH]c(NC(=O)c2csc(-c3ccc4c(c3)CCO4)n2)n1 [Compound 19, 2-(2,3-Dihydrobenzofuran-5-yl)-N-(3-(methylcarbamoyl)-1H-1,2,4-triazol-5-yl)thiazole-4-carboxamide] | 1 to 3
14 | 0.000852 | – | O=C(Nc1nc2cc(C(=O)N3CCCC3)ccc2[nH]1)c1csc(-c2ccc3c(c2)CCO3)n1 [Compound 22, 2-(2,3-Dihydrobenzofuran-5-yl)-N-(5-(pyrrolidine-1-carbonyl)-1H-benzo[d]imidazol-2-yl)thiazole-4-carboxamide] | < 1
15 | 0.000699 | – | COCCNC(=O)c1ccc2[nH]c(NC(=O)c3csc(-c4ccc5c(c4)CCO5)n3)nc2c1 [Compound 23, 2-(2,3-Dihydrobenzofuran-5-yl)-N-(5-((2-methoxyethyl)carbamoyl)-1H-benzo[d]imidazol-2-yl)thiazole-4-carboxamide] | < 1
16 | 0.00351 | – | O=C(Nc1nc(C(=O)NC2CC2)n[nH]1)c1csc(-c2ccc3c(c2)CCO3)n1 [Compound 25, N-(3-(Cyclopropylcarbamoyl)-1H-1,2,4-triazol-5-yl)-2-(2,3-dihydrobenzofuran-5-yl)thiazole-4-carboxamide] | 1 to 3
17 | < 0.0005 | – | O=C(NCC1CCCO1)c1ccc2[nH]c(NC(=O)c3csc(-c4ccc5c(c4)CCO5)n3)nc2c1 (stereo not drawn) [Compound 35, 2-(2,3-Dihydrobenzofuran-5-yl)-N-(5-(((tetrahydrofuran-2-yl)methyl)carbamoyl)-1H-benzo[d]imidazol-2-yl)thiazole-4-carboxamide] | < 1
18 | 0.00281 | – | O=C(Nc1nc(-c2cccnc2)n[nH]1)c1csc(-c2ccc3c(c2)CCO3)n1 [Compound 45, 2-(2,3-Dihydrobenzofuran-5-yl)-N-(3-(pyridin-3-yl)-1H-1,2,4-triazol-5-yl)thiazole-4-carboxamide] | 1 to 3
19 | 0.00217 | – | CCN1CCN(C(=O)c2ccc3[nH]c(NC(=O)c4csc(-c5ccc6c(c5)CCO6)n4)nc3c2)CC1 [Compound 47, 2-(2,3-Dihydrobenzofuran-5-yl)-N-(5-(4-ethylpiperazine-1-carbonyl)-1H-benzo[d]imidazol-2-yl)thiazole-4-carboxamide] | < 1
